Consider eight compounds from patent publication US20200270232A1, “INHIBITORS OF INTEGRATED STRESS RESPONSE PATHWAY” (Praxis Biotech LLC, priority 2019, published 2020).

Some results are limits rather than exact numbers.

For assay [1], the system named is ATF4. Description: ATF4 expression inhibition assay (ATF4 luciferase reporter). The settings on record: Homo sapiens, HEK-293T; HEK293T cells carrying the ATF4 luciferase reporter, 100 nM thapsigargin (Tg), 3 hours; read-out: ATF4 inhbition IC50. Type of assay: cell-based. The protocol:
The ATF4 reporter was prepared by fusing the human full length 5′UTR of ATF4 (NCBI Accession No. BC022088.2) upstream of the firefly luciferase coding sequence lacking the initiator methionine. The fused sequence was cloned into pLenti-EF1a-C-Myc-DDK-IRES-Puro cloning vector (Origen # PS 100085) using standard methods. Virus production was carried out by using Lenti-X™ Packaging Single Shots Protocol (Clonetech #631276). Viral particles were used to transduce HEK293T cells (ATCC # CRL-3216, ATCC Manassas, Va.), which were subsequently selected with puromycin to generate stable cell line. Cells were maintained at 37° C. and 5% CO2 in DMEM-F12 (Hyclone # SH30023.02) supplemented with 10% heat-inactivated fetal bovine serum (Gibco #16000-044), 2 mM L-glutamine (Gibco #25030-081), 100 U/ml penicillin, and 100 μg/ml streptomycin (Gibco #15140-122).
HEK293T cells carrying the ATF4 luciferase reporter were plated on 96-well plates (Nunc) at 10,000 cells per well. Cells were treated two days after seeding with 100 nM thapsigargin (Tg) (Sigma-Aldrich # T9033) in the presence of different concentrations of selected compounds ranging from 1 nM to 10 μM. Cells without treatment or cells treated with Tg alone were used as controls. Assay plates containing cells were incubated for 3 hours at 37° C.
Luciferase reactions were performed using Luciferase Assay System (Promega # E1501) as specified by the manufacturer. Luminescence was read with an integration time of 1 s and a gain of 110 using a Cytation-5 multi-mode microplate reader (BioTek). Relative luminescence units were normalized to Tg treatment (0% inhibition) and untreated cells (100% inhibition) and the percentage of ATF4 inhibition was calculated.
Accordingly, inhibition of ATF4 expression as a result of the test compound indicates suppression of the ISR pathway.

Assay [2] concerns Chinese hamster ovary (CHO) cells. Description: Protein translation assay (puromycin labelling, western blot). Type of assay: cell-based. The note with it: 2 hours, media alone = 100%; for activity at 1 µM: Cricetulus griseus, unstressed CHO cells (without Tg), 1 μM test compound, read-out: % Protein synthesis relative to untreated (1 μM test compound); for % Recovery of protein synthesis (1 μM test compound): stressed CHO cells, 300 nM Tg, Tg alone = 0%. How it is done:
Chinese hamster ovary (CHO) cells were maintained at 37° C. and 5% C02 in Dulbecco's Modified Eagle's Media (DMEM) supplemented with 10% fetal bovine serum, 2 mM L-glutamine, 100 U/ml penicillin, and 100 μg/ml streptomycin. After reaching 80% of confluence, cells were detached and seeded on 6 well plates in complete media, allowed to recover overnight and treated for 2 hours with 1 μM of the test compound (to assess protein synthesis levels in unstressed condition), or for 2 hours with 300 nM Tg in the presence of 1 μM of the test compound (to assess the recovery of protein synthesis in a stressed condition). Cells with Tg alone were used as controls.
After the 2 hours treatments, media were replaced by adding 10 μg/ml puromycin (Sigma Aldrich # P8833) in complete media for 30 min. Media were removed and cells were lysed with SDS-PAGE lysis buffer. Lysates were transferred to 1.5 ml tubes and sonicated for 3 min and total protein amount were quantified using BCA Protein Assay Kit (Pierce). Equal amount of protein (30 μg) was loaded on SDS-PAGE gels. Proteins were transferred onto 0.2 μm PVDF membranes (BioRad) and probed with primary antibodies diluted in Tris-buffered saline supplemented with 0.1% Tween 20 (Merck # S6996184 505) and 3% bovine serum albumin (Rockland # BSA-50).
Puromycin (12D10) (Merck # MABE343) and β-actin (Sigma Aldrich # A5441) antibodies were used as primary antibody. A HRP-conjugated secondary antibody (Rockland) was employed to detect immune-reactive bands using enhanced chemiluminescence (ECL Western Blotting Substrate, Pierce). Quantification of protein bands was done by densitometry using ImageJ software.
Percent increase of protein synthesis in unstressed cells (without Tg treatment) in the presence of media alone or certain test compounds is shown in Table 3. The percentage levels were normalized to the media alone condition, which correspond to 100% protein synthesis.
Percent recovery of protein synthesis in stressed cells (with Tg treatment) due to the test compounds at 1 μM is also shown in Table 3. The levels were normalized to the media alone and Tg alone conditions, which correspond to 100% and 0% respectively.

On to `O=C(N[C@H]1CC[C@H](NC[C@@H](O)COc2ccc(Cl)c(F)c2)C1)c1cc2cc(Cl)ccc2o1` [Compound 94, 5-chloro-N-((1S,3S)-3-(((R)-3-(4-chloro-3-fluorophenoxy)-2-hydroxypropyl)amino)cyclopentyl)benzofuran-2-carboxamide], for which the IC50 in assay [1] stood at 24.3 nM. In addition, in assay [2], the activity at 1 µM amounted to 169% and the “% Recovery of protein synthesis (1 μM test compound)” value (“% Recovery of protein synthesis” below) came out at 298.3%.
Consider `O=C(N[C@@H]1CC[C@@H](NC[C@@H](O)COc2ccc(Cl)c(F)c2)C1)c1cc2cc(Cl)ccc2o1` [Compound 95, 5-chloro-N-((1R,3R)-3-(((R)-3-(4-chloro-3-fluorophenoxy)-2-hydroxypropyl)amino)cyclopentyl)benzofuran-2-carboxamide], for which the IC50 in assay [1] was less than 1000 nM. Also, in assay [2], the activity at 1 µM stood at 186% and the “% Recovery of protein synthesis” value worked out at 170.5%.
Consider `O=C(COc1ccc(Cl)c(F)c1)NC[C@@H]1CCN(NC(=O)c2cc3cc(Cl)ccc3o2)C1` [Compound 96, (S)-5-chloro-N-(3-((2-(4-chloro-3-fluorophenoxy)acetamido)methyl)pyrrolidin-1-yl)benzofuran-2-carboxamide], for which the IC50 in assay [1] was determined as 4.97 nM. Moreover, in assay [2], the activity at 1 µM was determined as 110% and the “% Recovery of protein synthesis” value is recorded as 24.5%.
`O=C(COc1ccc(Cl)c(F)c1)NC[C@H]1CCN(NC(=O)c2cc3cc(Cl)ccc3o2)C1` [Compound 97, (R)-5-chloro-N-(3-((2-(4-chloro-3-fluorophenoxy)acetamido)methyl)pyrrolidin-1-yl)benzofuran-2-carboxamide]: the IC50 in assay [1] came to 25 nM. For the same compound, in assay [2], the activity at 1 µM is 109%.
As for `O=C(NC1CCN(CC(O)COc2ccc(Cl)c(F)c2)C1)c1cc2cc(Cl)ccc2o1` (centres unmarked) [Compound 98, 5-chloro-N-(1-(3-(4-chloro-3-fluorophenoxy)-2-hydroxypropyl)pyrrolidin-3-yl)benzofuran-2-carboxamide], the IC50 in assay [1] is greater than 100 nM. Besides, in assay [2], the activity at 1 µM stood at 167% and the “% Recovery of protein synthesis” value is 142.63%.
Regarding `O=C(COc1ccc(Cl)c(F)c1)NC1CCN(CC(O)COc2ccc(Cl)c(F)c2)C1` (centres unmarked) [Compound 99, 2-(4-chloro-3-fluorophenoxy)-N-(1-(3-(4-chloro-3-fluorophenoxy)-2-hydroxypropyl)pyrrolidin-3-yl)acetamide], in assay [1], the IC50 was greater than 100 nM. In assay [2], the activity at 1 µM is 67.7% and the “% Recovery of protein synthesis” value came to 0.00%.
Turning to `O=C(COc1ccc(Cl)c(F)c1)NC1CCN(CCCOc2ccc(Cl)c(F)c2)C1` (centres unmarked) [Compound 100, 2-(4-chloro-3-fluorophenoxy)-N-(1-(3-(4-chloro-3-fluorophenoxy)propyl)pyrrolidin-3-yl)acetamide], in assay [1], the IC50 was greater than 100 nM. In addition, in assay [2], the activity at 1 µM turned out to be 69.1% and the “% Recovery of protein synthesis” value is 0.00%.
For `O=C(NC1CCN(CCCOc2ccc(Cl)c(F)c2)C1)c1cc2cc(Cl)ccc2o1` (centres unmarked) [Compound 101, 5-chloro-N-(1-(3-(4-chloro-3-fluorophenoxy)propyl)pyrrolidin-3-yl)benzofuran-2-carboxamide], in assay [1], the IC50 is greater than 100 nM. In assay [2], the activity at 1 µM was found to be 93.2% and the “% Recovery of protein synthesis” value is 86.10%.
